From US20100317578A1, “METHOD OF PROTECTING AGAINST STROKE THROUGH THE USE OF A DELTA OPIOID PEPTIDE” (priority 2009, published 2010)

What was measured:
Assay type in all cases: in vivo, Sprague-Dawley rats
[1] = test system: cerebral infarction in the striatum after MCAor; assay: Cerebral infarction assay (TTC staining)
[2] = test system: Fas; assay: Immunohistochemistry of apoptosis markers, Fas; settings: ischemic striatum, 72 hours after MCAor
Experimental: (§1) In order to further characterize the effects of DADLE on apoptotic cell death, 20 animals were subjected to the same procedures as above, and the treatment effects of DADLE (n=10) against saline vehicle alone (n=10) were compared. Rats were euthanized at 72 hours after MCAor surgery. The rats were perfused transcardially with 200 ml of cold phosphate-buffered saline (PBS) and 200 ml of 4% paraformaldehyde in PBS. Brains were removed and post-fixed in the same fixative overnight at 4° C. with the subsequent replacement with 30% sucrose in PBS for 72 hours. The brains were coronally sectioned at the thickness of 8 μm. Sections were washed 3 times for 5 minutes in PBS. Sections were then incubated overnight at 4° C. with caspase-3 (Abeam, 1:500) or Fas (Santa Cruz Biotechnology, 1:100) primary antibody and washed 3 times in PBS. […]
(§2) For morphological analyses, immunoreactive cells in the striatum within the ipsilateral to the stroke hemisphere were examined using a Zeiss LSM510 confocal microscope (Oberkochen, Germany). Specifically, 6 coronal sections at every 300 μm that approximately captured the ischemic striatum (AP −2.0 to +2.0 mm from the bregma) were examined from each rat and the number of positive cells was counted in each 6 high power fields and the averages were used for the statistical analyses. […]

[3] = test system: glial cell line-derived neurotrophic factor (GDNF); assay: ELISA assay of GDNF in brain tissues; settings: striatal and cortical tissues, p<0.05
Experimental: (§3) To examine possible non-opioid effects of DADLE, assays of expression of neurotrophic factors (glial cell line-derived neurotrophic factor (GDNF) and nerve growth factor (NGF)) that have been previously shown to be protective against ischemia were performed. Enzyme-linked immunosorbent assay (ELISA) was conducted on ischemic animals injected either with DADLE or saline (n=6 per group). Following the same drug dosing regimen mentioned above, animals were rapidly decapitated, their brains removed and striatal and frontal cortical tissues quickly dissected. Brain homogenization and supernatant acidification were performed using methods as described in Okragly et al., Exp Neurol 1997, 145:592-596 [37] with minor modifications. Protein concentrations were measured by using the BCA Kit (Pierse, Rockford, Ill. USA). For the measurement of GDNF, mouse monoclonal anti-GDNF antibody (R & D Systems, Inc., Minnesota, USA) was used as a capture antibody and biotinylated goat anti-GDNF antibody (R & D Systems, Inc., Minnesota, USA) was used as a detection antibody. For the measurement of NGF, the NGF Emax TM ImmunoAssay system (Promega Cooperation, Madison, Wis., USA) was used. The THERMOmax 96-well microplate reader (Molecular Devices Corp., Sunnyvale, Calif. USA) was used to measure the optical densities.

[4] = test system: caspase-3; assay: Immunohistochemistry of apoptosis markers, caspase-3; settings: ischemic striatum, 72 hours after MCAor
Experimental: as §1, §2

[5] = test system: ischemia-induced asymmetrical motor deficits (MCAor); assay: Battery of behavioral tests after MCAor surgery
[6] = test system: p53 mRNA; assay: Determination of p53 mRNA expression (northern blot); settings: 24 hr post-MCAor
Experimental: To examine whether DADLE altered programmed cell death or apoptosis, which has been postulated to mediate ischemia-induced cell injury, the mRNA expression of the apoptotic marker p53 were assayed. At 24 hr and 72 hr after MCAor surgery, randomly selected animals that received either DADLE alone or saline alone were euthanized by rapid decapitation. The striatum was dissected and quickly frozen using dry ice then stored in −80° C. freezer until tissue processing was conducted. Total RNA extraction, northern blot analysis and hybridization were conducted using standard methods as described in Chomczynski et al., Anal Biochem 1987, 162:156-159 and Mattson, Brain Res 2000, 886:47-53 [34,35]. Analyses of resulting bands were quantified using a Macintosh computer-based image analysis system (Image, NIH). Densitometrically determined intensities of p-53 mRNA was normalized to 18S rRNA.

[7] = test system: nerve growth factor (NGF); assay: ELISA assay of NGF in brain tissues; settings: striatal and cortical tissues, p>0.05
Experimental: as §3

[8] = test system: ischemia-induced postural bias (MCAor); assay: Postural bias (tail-hang) test; settings: scale 0-3; pooled mean of ischemic animals pretreated with saline, naltrexone alone or naloxone methiodide alone
Experimental: (§4) The spontaneous rotational test was performed immediately after the animal's recovery from anesthesia following insertion of the embolus. The animal was placed in a chamber made of transparent Plexiglas (40×40×35.5 cm) and the direction of the animal's rotation was noted over two 5-minute sessions. Two full turns (tight ipsiversive rotations) per minute was considered indicative of a brain insult. For the postural bias test and forelimb akinesia test, a semiquantitative scale was used as described in Bederson et al., Stroke 1986, 17:472-476 [33].
The postural tail-hang test involved holding the animal by the tail (similar to the EBST) and noting the positions of the forelimbs. A scale is used for grading the ischemic injury-induced dysfunctions as follows: 0, rats extend straight both forelimbs, no observable deficit; 1, rats keep the left forelimb to the breast and extend straight the right forelimb; 2, rats show decreased resistance to lateral push in addition to behavior in score 1 without circling; 3, rats twist the upper half of their body in addition to behavior in score 2.
Finally, the forelimb akinesia test involved pulling each forelimb at 90 degrees away from the body median axis. The return of the forelimb towards the midline was scored as 0 for slow movement with rigidity, 1 for slow movement, and 2 for smooth rapid movement. […]

[9] = test system: ischemia-induced spontaneous rotational behavior (MCAor); assay: Spontaneous rotational test; settings: pooled mean of ischemic animals pretreated with saline, naltrexone alone or naloxone methiodide alone
Experimental: (§5) After recovery from anesthesia, animals were evaluated on a battery of tests including spontaneous rotational test, elevated body swing test (EBST), postural bias test and forelimb akinesia test.
as §4

[10] = test system: ischemia-induced biased swing activity (MCAor); assay: Elevated body swing test (EBST); settings: pooled mean of ischemic animals pretreated with saline, naltrexone alone or naloxone methiodide alone
Experimental: as §5
The EBST is described in detail in Borlongan et al., Exp Neurol 1998, 149:310-321[17], and has been utilized to characterize the biased swing activity of ischemic animals starting at one month post-ischemia and extending up to three months post-surgery. The animal was lifted 20 times by its tail and the direction of the swing was recorded.

[11] = test system: ischemia-induced forelimb akinesia (MCAor); assay: Forelimb akinesia test; settings: scale 0-2; pooled mean of ischemic animals pretreated with saline, naltrexone alone or naloxone methiodide alone
Experimental: The spontaneous rotational test [32] was performed immediately after the animal's recovery from anesthesia following insertion of the embolus. The animal was placed in a chamber made of transparent Plexiglas (40×40×35.5 cm) and the direction of the animal's rotation was noted over two 5-minute sessions. Two full turns (tight ipsiversive rotations) per minute was considered indicative of a brain insult [17,32].
Finally, the forelimb akinesia test involved pulling each forelimb at 90 degrees away from the body median axis. The return of the forelimb towards the midline was scored as 0 for slow movement with rigidity, 1 for slow movement, and 2 for smooth rapid movement. A score of 1 in the scale for postural bias test or forelimb akinesia test was considered as indicative of CNS dysfunction [17].

Row | Compound | mean volume of infarcted striatal tissue ([1]; rat, in vivo) | Fas-positive cells compared to vehicle-treated ischemic animals [2] | levels of GDNF compared to saline-treated ischemic animals [3] | caspase-3-positive cells compared to vehicle-treated ischemic animals [4] | behavior in EBST, spontaneous rotational test, postural bias test and forelimb akinesia test ([5]; rat, in vivo) | increment in p-53 mRNA expression in ischemic striatum compared to intact striatum of control, normal animals ([6]; normalized to 18S rRNA, vehicle 65% increment, not significant vs control (p>0.05)) [%] | p-53 mRNA expression in ischemic striatum compared to vehicle-treated ischemic animals ([6]; only a trend, p=0.07) | levels of NGF compared to saline-treated ischemic animals [7] | mean volume of infarcted striatal tissue ([1]; TTC staining at 24 or 72 hr after reperfusion, saline 81.2±5.3 mm^3) [mm^3] | mean postural bias score [8] | mean ipsiversive rotations per minute [9] [rotations per minute] | mean percentage biased swing response [10] | mean akinesia score [11] | behavior in EBST, spontaneous rotational test, postural bias test and forelimb akinesia test ([5]; ischemic rats, pretreatment i.p. before MCAor, throughout the post-MCAor test period (day 0 to 3))
1 | CC(C)C[C@@H](NC(=O)[C@H](Cc1ccccc1)NC(=O)CNC(=O)[C@@H](C)NC(=O)[C@@H](N)Cc1ccc(O)cc1)C(=O)O [DADLE, [D-Ala^2,D-Leu^5]enkephalin] | no detectable infarction | significant reductions | significantly higher | significant reductions | near-normal behaviors | 28 | marked reduction | did not differ | – | – | – | – | – | –
2 | C=CC[N+]1(C)CC[C@]23c4c5ccc(O)c4O[C@H]2C(=O)CC[C@@]3(O)[C@H]1C5 (stereo partly drawn) [naloxone methiodide] | – | – | – | – | significant abnormalities | – | – | – | 78.7±7.4 | 2.25±0.31 | 2.52±0.56 | 82.8%±12.3 | 1.17±0.15 | –
3 | O=C1CC[C@@]2(O)[C@H]3Cc4ccc(O)c5c4[C@@]2(CCN3CC2CC2)[C@H]1O5 [naltrexone] | – | – | – | – | – | – | – | – | – | 2.25±0.31 | 2.52±0.56 | 82.8%±12.3 | – | significant abnormalities
